The text below walks through data of US20250091989A1, “SMALL MOLECULE PROTEIN SYNTHESIS MODULATORS” (Interdict Bio, Inc., priority 2023, published 2025).

Where only a bound is given, the exact number is not on record here.

What all share (format): biochemical
Details in all cases: HeLa S3 lysate, sfGFP/mCherry ratio, 2 hrs at 30° C.

For one assay, the system named is ALK. Briefly: In vitro transcription-translation (IVTT) reporter assay, ALK test sequence. The source says:
(§1) All reporter constructs have been cloned into the pT7CFE1-CHis plasmid (ThermoFisher #88860) using Gibson assembly procedures (NEB #E2611L). The parental pT7CFE1-CHis plasmid contains an EMCV IRES at the 5′UTR for translation initiation, a multiple-cloning site (MCS) for gene insertion, an optional C-terminal His-epitope tag, and polyA sequence in the 3′UTR to regulate mRNA stability. All reporters are designed to be inserted at the MCS to include a red fluorescent protein (mCherry), P2A self-cleaving peptide which releases the preceding mCherry protein product, and a fusion open reading frame containing a 3×FLAG epitope, a peptide sequence of interest (TEST), and green fluorescent protein (sfGFP).
(§2) Construct Plasmid Preparation: All plasmids are isolated from MACH1 cells (ThermoFisher) grown overnight in ampicillin-containing luria broth, and purified using ZymoPure Express Plasmid Midiprep Kit (Zymo Research). Constructs are sequenced verified and diluted to a working concentration of 110 ng/μL.
(§3) HeLa S3 Lysate Preparation: HeLa S3 cell pellets are acquired from Ipracell/Ipratech (Belgium) and shipped as 4 mL frozen cell pellets on dry ice for storage at −80° C. until use. The procedure for lysate preparation is as follows. Prepare 1× Lysis Buffer, cold and stored on ice:
(§4) Each preparation takes 8 cell pellets (4 ml packed volume each, approximately 1.0×10^9 cells per pellet). Thaw cell pellets from −80° C. on ice for 90 mins. Lay pellets horizontally on top of the ice and rotate every 30 mins to ensure even thawing. Once thawed, add 4 mL of cold lysis buffer to each pellet, and using a serological pipet, gently pipet up and down to break up clumps. Incubate resuspended cells in ice for an additional 30 mins (plunged into ice). During 30 min incubation, rinse and RNase-zap (Ambion) glass dounces (use loose pestle “A”), gently dry and place on ice until needed. Prepare RNase-free Eppendorf tubes for spinning and for batch storage. Add batch labels to 1.5-1.7 mL RNase-free microcentrifuge tubes (labeling scheme below). Each batch will have an extra 1.5-1.7 mL RNase-free microcentrifuge tube for 40 μL of lysate, label the top of this tube (labeling scheme below). After 30 min incubation, transfer all 8 mL of cell pellet to dounce. Cell lysis is complete after douncing 100 times. Aliquot cell lysis into 1.5-1.7 mL temporary-microcentrifuge tubes. Place tubes in centrifuge with “fins” out, and spin at 1,200 xg for 5 mins. After the first spin use a 1 mL pipet to resuspend each tube and repeat spin. This acts as an additional lysis step, is more vigorous and increases lysate yield. During second spin get liquid N2 and a fresh conical tube on ice.
(§5) After spin is complete, transfer supernatant (lysate) from microcentrifuge tubes into the 50 mL conical tube and keep on ice. Repeat steps 10-14 for all other cell pellets until completed. Once all cell lysate has been transferred to the 50 mL conical tube pipet to mix so the solution is homogenous. Transfer 1 mL of lysate into batch-labeled microcentrifuge tubes and flash freeze in liquid nitrogen. Be sure to pipet up and down to mix throughout transfer step. Place all tubes in the […] for long-term storage.
(§6) In vitro transcription-translation assay setup: Each assay includes a master mix containing lysate and shared components, a 96-well plate containing compound titrations for testing, a 96-well DNA plate with reporter constructs to be tested, 96-well skirted PCR plates, and 96-well flat-bottom, black, fluorescent assay plates. […]
(In general: A reporter such as luciferase makes a cellular process visible.)

Another assay has as its system MYC. Briefly: In vitro transcription-translation (IVTT) reporter assay, MYC test sequence.
Text: as §1, §2, §3, §4, §5, §6

In another assay the test system is KRAS G12D. Briefly: In vitro transcription-translation (IVTT) reporter assay, KRAS G12D test sequence.
Text: as §1, §2, §3, §4, §5, §6

With `COc1ccc(C[C@H]2NC[C@H](O)[C@H]2OC(=O)c2ccc3onc(N)c3c2)cc1` [V000148, (2R,3S,4S)-4-hydroxy-2-[(4-methoxyphenyl)methyl]pyrrolidin-3-yl 3-amino-1,2-benzoxazole-5-carboxylate], the IC50 with ALK, in the assay on MYC and in the assay on KRAS G12D was above 30 µM each time.

For `COc1ccc(C[C@H]2NC[C@H](O)[C@H]2OC(=O)C2CN(Cc3ccccc3)C2)cc1` [V000173, (2R,3S,4S)-4-hydroxy-2-[(4-methoxyphenyl)methyl]pyrrolidin-3-yl 1-benzylazetidine-3-carboxylate], the IC50 in the assay with ALK, with MYC and in the assay on KRAS G12D was above 30 µM in each case.

For the compound `COc1ccc(C[C@H]2NC[C@H](O)[C@H]2OC(=O)C2(OCc3ccccc3)CNC2)cc1` [V000192, (2R,3S,4S)-4-hydroxy-2-(4-methoxybenzyl) pyrrolidin-3-yl 3-(benzyloxy)azetidine-3-carboxylate], the IC50 with ALK, in the assay with MYC and with KRAS G12D was above 30 µM throughout.

Consider `COc1ccc(C[C@H]2NC[C@H](O)[C@H]2OC(=O)c2ccc(S(=O)(=O)N(C)C)cc2)cc1` [V000198, (2R,3S,4S)-4-hydroxy-2-[(4-methoxyphenyl)methyl]pyrrolidin-3-yl 4-(dimethylsulfamoyl)benzoate], for which the IC50 in the assay with ALK, in the assay with MYC and with KRAS G12D was above 30 µM throughout.

On to `COc1ccc(C[C@H]2NC[C@H](O)[C@H]2OC(=O)CNc2c(N)c(=O)c2=O)cc1` [V000215, (2R,3S,4S)-4-hydroxy-2-[(4-methoxyphenyl)methyl]pyrrolidin-3-yl 2-[(2-amino-3,4-dioxocyclobut-1-en-1-yl)amino]acetate], for which the IC50 in the assay with ALK, in the assay on MYC and in the assay with KRAS G12D was below 10 µM each time.

Turning to `COc1ccc(C[C@H]2NC[C@H](O)[C@H]2OC(=O)C2CCS(=N)(=O)CC2)cc1` (stereo partly drawn) [V186712, (2R,3S,4S)-4-hydroxy-2-[(4-methoxyphenyl)methyl]pyrrolidin-3-yl (1 s)-1-imino-1-oxo-1lambda6-thiane-4-carboxylate], the half-maximal inhibitory concentration (IC50) with ALK, in the assay on MYC and in the assay on KRAS G12D was above 30 µM in each case.

On to `COc1ccc(C[C@H]2NC[C@H](O)[C@H]2OC(=O)CN)cc1` [V186760, (2R,3S,4S)-4-hydroxy-2-[(4-methoxyphenyl)methyl]pyrrolidin-3-yl 2-aminoacetate], for which the IC50 is below 10 µM in the assay on ALK, below 10 µM in the assay with MYC and 20 to 30 µM in the assay on KRAS G12D.

Take `COc1ccc(C[C@H]2NC[C@H](O)[C@H]2OC(=O)C2CCOC2)cc1` (stereo partly drawn) [V186761, (2R,3S,4S)-4-hydroxy-2-[(4-methoxyphenyl)methyl]pyrrolidin-3-yl oxolane-3-carboxylate]: the IC50 in the assay with ALK was below 10 µM; with MYC, below 10 µM; in the assay on KRAS G12D it was above 30 µM.

As to `COc1ccc(C[C@H]2NC[C@H](O)[C@H]2OC(=O)C2CN(CC3COC3)C2)cc1` [V186772, (2R,3S,4S)-4-hydroxy-2-[(4-methoxyphenyl)methyl]pyrrolidin-3-yl 1-(oxetan-3-ylmethyl)azetidine-3-carboxylate], the 50% inhibitory concentration (IC50) in the assay on ALK, with MYC and in the assay on KRAS G12D was above 30 µM each time.

Consider `COc1ccc(C[C@H]2NC[C@H](O)[C@H]2OC(=O)C2CC(F)(F)C2)cc1` [V186775, (2R,3S,4S)-4-hydroxy-2-[(4-methoxyphenyl)methyl]pyrrolidin-3-yl 3,3-difluorocyclobutane-1-carboxylate], for which the IC50 in the assay on ALK is below 10 µM; in the assay on MYC it was below 10 µM; in the assay with KRAS G12D, 20 to 30 µM.

On to `COc1ccc(C[C@H]2NC[C@H](O)[C@H]2OC(=O)CCCCC(C)C)cc1` [V186779], for which the IC50 in the assay with ALK, in the assay on MYC and with KRAS G12D was below 10 µM in each case.

With `CCC1(C(=O)O[C@@H]2[C@@H](O)CN[C@@H]2Cc2ccc(OC)cc2)COC1` [V186781, (2R,3S,4S)-4-hydroxy-2-[(4-methoxyphenyl)methyl]pyrrolidin-3-yl 3-ethyloxetane-3-carboxylate], the IC50 in the assay with ALK, in the assay with MYC and with KRAS G12D was above 30 µM each time.

Take `COCCOCC(=O)O[C@@H]1[C@@H](O)CN[C@@H]1Cc1ccc(OC)cc1` [V186783]: the IC50 in the assay with ALK, in the assay with MYC and in the assay with KRAS G12D was below 10 µM in each case.

Regarding `COc1ccc(C[C@H]2NC[C@H](O)[C@H]2OC(=O)CC(C)(C)O)cc1` [V186784, (2R,3S,4S)-4-hydroxy-2-[(4-methoxyphenyl)methyl]pyrrolidin-3-yl 3-hydroxy-3-methylbutanoate], the figures for the IC50 with ALK, in the assay with MYC and in the assay on KRAS G12D were below 10 µM, below 10 µM and 10 to 20 µM, respectively.

Turning to `COc1ccc(C[C@H]2NC[C@H](O)[C@H]2OC(=O)C(C)(C)O)cc1` [V186785, (2R,3S,4S)-4-hydroxy-2-[(4-methoxyphenyl)methyl]pyrrolidin-3-yl 2-hydroxy-2-methylpropanoate], the IC50 with ALK was below 10 µM; with MYC, above 30 µM; with KRAS G12D, above 30 µM.

As for `CC(=O)O[C@@H]1[C@@H](O)CN[C@@H]1Cc1ccccc1` [V186810, (2R,3S,4S)-2-benzyl-4-hydroxy pyrrolidin-3-yl acetate], the IC50 in the assay on ALK, with MYC and with KRAS G12D was below 10 µM in each case.

Turning to `COc1ccc(C[C@H]2NC[C@H](O)[C@H]2OC(=O)[C@H]2CCCO2)cc1` [V186824, (2R,3S,4S)-4-hydroxy-2-[(4-methoxyphenyl)methyl]pyrrolidin-3-yl (2R)-oxolane-2-carboxylate], the IC50 is below 10 µM with ALK, above 30 µM with MYC and above 30 µM in the assay on KRAS G12D.

Turning to `COc1ccc(C[C@H]2NC[C@H](O)[C@H]2OC(=O)[C@@H]2CCCO2)cc1` [V186825, (2R,3S,4S)-4-hydroxy-2-[(4-methoxyphenyl)methyl]pyrrolidin-3-yl (2S)-oxolane-2-carboxylate], the IC50 in the assay on ALK, with MYC and with KRAS G12D was below 10 µM each time.

As to `COc1ccc(C[C@H]2NC[C@H](O)[C@H]2OC(=O)CCN2CC(=O)NCC2=O)cc1` [V186849, (2R,3S,4S)-4-hydroxy-2-[(4-methoxyphenyl)methyl]pyrrolidin-3-yl 3-(2,5-dioxopiperazin-1-yl)propanoate], the IC50 in the assay on ALK is below 10 µM; in the assay on MYC, 10 to 20 µM; in the assay with KRAS G12D it was above 30 µM.

Regarding `COc1ccc(C[C@H]2NC[C@H](O)[C@H]2OC(=O)CCN2CC(=O)N(C)CC2=O)cc1` [V186850], the IC50 in the assay with ALK is 20 to 30 µM; in the assay with MYC, above 30 µM; in the assay on KRAS G12D, above 30 µM.

With `COc1ccc(C[C@H]2NC[C@H](O)[C@H]2OC(=O)CCN2CCNCC2)cc1` [V186857, (2R,3S,4S)-4-hydroxy-2-[(4-methoxyphenyl)methyl]pyrrolidin-3-yl 3-(piperazin-1-yl)propanoate], the IC50 was below 10 µM in the assay with ALK, above 30 µM with MYC and above 30 µM in the assay on KRAS G12D.

`COc1ccc(C[C@H]2NC[C@H](O)[C@H]2OC(=O)CCN2CCN(C)CC2)cc1` [V186858, (2R,3S,4S)-4-hydroxy-2-[(4-methoxyphenyl)methyl]pyrrolidin-3-yl 3-(4-methylpiperazin-1-yl)propanoate; trifluoroacetic acid]: the IC50 in the assay with ALK, with MYC and with KRAS G12D was above 30 µM throughout.

Regarding `COc1ccc(C[C@H]2NC[C@H](O)[C@H]2OC(=O)CCN2CC(=O)NC(=O)C2)cc1` [V186859, (2R,3S,4S)-4-hydroxy-2-[(4-methoxyphenyl)methyl]pyrrolidin-3-yl 3-(3,5-dioxopiperazin-1-yl)propanoate; trifluoroacetic acid], the IC50 with ALK, in the assay on MYC and in the assay on KRAS G12D was below 10 µM each time.

One may read the IC50 as the concentration that gives 50% inhibition.
